Data on one compound can be found in publication PMC5218480 (PLoS ONE, 2017).

The subject of this assay is MV-4-11 cells. Put plainly: Gene expression microarray analysis (Affymetrix PrimeView) and GSEA. The following applies: MV-4-11 cells, 48 hours. The format is cell-based, human. The arrangement: RFU PODN (11730768_x_at) / Fold change /veh PODN (11730768_x_at) / RFU LINC00158 (11744669_a_at) / Fold change /veh LINC00158 (11744669_a_at) / RFU DUSP10 (11751237_a_at) / Fold change /veh DUSP10 (11751237_a_at) / RFU ID3 (11757404_x_at) / Fold change /veh ID3 (11757404_x_at) / RFU PLEKHG5 (11737974_s_at) / Fold change /veh PLEKHG5 (11737974_s_at) / RFU LRRC4B (11730491_at) / Fold change /veh LRRC4B (11730491_at) / RFU GIMAP4 (11747438_a_at) / Fold change /veh GIMAP4 (11747438_a_at) / RFU KRT8 (11758183_x_at) / Fold change /veh KRT8 (11758183_x_at) / RFU CNN1 (11734310_a_at) / Fold change /veh CNN1 (11734310_a_at) / RFU VPS37D (11726825_at) / Fold change /veh VPS37D (11726825_at) / RFU C10orf10 (11716522_x_at) / Fold change /veh C10orf10 (11716522_x_at) / RFU KIR2DL2 /// KIR2DL4 /// KIR2DL5A /// KIR2DL5B /// KIR2DS1 /// KIR2DS2 /// KIR2DS3 /// KIR2DS4 /// KIR3DL3 /// KIR3DL3 /// KIR3DS1 (11738374_at) / Fold change /veh KIR2DL2 /// KIR2DL4 /// KIR2DL5A /// KIR2DL5B /// KIR2DS1 /// KIR2DS2 /// KIR2DS3 /// KIR2DS4 /// KIR3DL3 /// KIR3DL3 /// KIR3DS1 (11738374_at) / RFU C1QL1 (11718748_at) / Fold change /veh C1QL1 (11718748_at) / RFU TMPRSS4 (11747572_a_at) / Fold change /veh TMPRSS4 (11747572_a_at) / RFU HAMP (11756126_x_at) / Fold change /veh HAMP (11756126_x_at) / RFU RNFT2 (11725882_a_at) / Fold change /veh RNFT2 (11725882_a_at) / RFU NR4A2 (11747474_a_at) / Fold change /veh NR4A2 (11747474_a_at) / RFU ABCC12 (11746883_a_at) / Fold change /veh ABCC12 (11746883_a_at) / RFU TMEM136 (11760407_x_at) / Fold change /veh TMEM136 (11760407_x_at) / RFU CLDN22 /// WWC2 (11732394_at) / Fold change /veh CLDN22 /// WWC2 (11732394_at) / RFU HLA-DPB1 (11760878_x_at) / Fold change /veh HLA-DPB1 (11760878_x_at) / RFU SPINT1 (11716480_a_at) / Fold change /veh SPINT1 (11716480_a_at) / RFU GAP43 (11754022_s_at) / Fold change /veh GAP43 (11754022_s_at) / RFU A4GNT (11735810_at) / Fold change /veh A4GNT (11735810_at) / RFU PRB3 (11715151_x_at) / Fold change /veh PRB3 (11715151_x_at) / RFU TUBB4B (11761932_at) / Fold change /veh TUBB4B (11761932_at) / RFU CAPN14 (11732068_a_at) / Fold change /veh CAPN14 (11732068_a_at) / RFU TMCC2 (11721928_a_at) / Fold change /veh TMCC2 (11721928_a_at) / RFU IRGQ (11745062_a_at) / Fold change /veh IRGQ (11745062_a_at) / RFU FAM174B (11720279_a_at) / Fold change /veh FAM174B (11720279_a_at) / RFU TMPRSS4 (11748680_a_at) / Fold change /veh TMPRSS4 (11748680_a_at) / RFU FAM212B (11763350_a_at) / Fold change /veh FAM212B (11763350_a_at) / RFU PLEKHG5 (11743358_a_at) / Fold change /veh PLEKHG5 (11743358_a_at) / RFU ZSCAN30 (11745921_a_at) / Fold change /veh ZSCAN30 (11745921_a_at) / RFU CMKLR1 (11741424_a_at) / Fold change /veh CMKLR1 (11741424_a_at) / RFU LOC101060620 /// MAPK8IP1 (11723275_at) / Fold change /veh LOC101060620 /// MAPK8IP1 (11723275_at) / RFU SPTSSB (11747773_x_at) / Fold change /veh SPTSSB (11747773_x_at) / RFU PRSS12 (11739890_at) / Fold change /veh PRSS12 (11739890_at) / RFU BIN1 (11741810_x_at) / Fold change /veh BIN1 (11741810_x_at) / RFU WNT11 (11732464_a_at) / Fold change /veh WNT11 (11732464_a_at) / RFU C10orf10 (11716521_a_at) / Fold change /veh C10orf10 (11716521_a_at) / RFU C5orf56 (11738089_at) / Fold change /veh C5orf56 (11738089_at) / RFU CYB561 (11721691_x_at) / Fold change /veh CYB561 (11721691_x_at) / RFU ANKRD19P (11752326_a_at) / Fold change /veh ANKRD19P (11752326_a_at) / RFU OR2T12 /// OR2T33 /// OR2T8 (11738714_s_at) / Fold change /veh OR2T12 /// OR2T33 /// OR2T8 (11738714_s_at) / RFU VCAN (11748164_a_at) / Fold change /veh VCAN (11748164_a_at) / RFU JSRP1 (11732532_at) / Fold change /veh JSRP1 (11732532_at) / RFU KRTAP10-11 (11738290_x_at) / Fold change /veh KRTAP10-11 (11738290_x_at) / RFU MYO3A (11730013_a_at) / Fold change /veh MYO3A (11730013_a_at) / RFU EBF3 (11725865_a_at) / Fold change /veh EBF3 (11725865_a_at) / RFU CAMK2N1 (11719241_x_at) / Fold change /veh CAMK2N1 (11719241_x_at) / RFU C5orf56 (11738088_a_at) / Fold change /veh C5orf56 (11738088_a_at) / RFU OLFML3 (11715873_a_at) / Fold change /veh OLFML3 (11715873_a_at) / RFU LOC100653217 /// NTM (11731650_a_at) / Fold change /veh LOC100653217 /// NTM (11731650_a_at) / RFU MAPK11 (11762145_a_at) / Fold change /veh MAPK11 (11762145_a_at) / RFU FIZ1 (11724087_x_at) / Fold change /veh FIZ1 (11724087_x_at) / RFU OASL (11726364_x_at) / Fold change /veh OASL (11726364_x_at) / RFU SOX15 (11748057_x_at) / Fold change /veh SOX15 (11748057_x_at) / RFU CD79A (11719716_a_at) / Fold change /veh CD79A (11719716_a_at) / RFU HIST1H1D (11736915_at) / Fold change /veh HIST1H1D (11736915_at) / RFU CASKIN2 (11723855_a_at) / Fold change /veh CASKIN2 (11723855_a_at) / RFU LOC730098 (11760151_x_at) / Fold change /veh LOC730098 (11760151_x_at) / RFU OR4N2 (11742367_at) / Fold change /veh OR4N2 (11742367_at) / RFU PRRT2 (11749266_a_at) / Fold change /veh PRRT2 (11749266_a_at) / RFU SNX32 (11753110_a_at) / Fold change /veh SNX32 (11753110_a_at) / RFU CDHR5 (11726645_a_at) / Fold change /veh CDHR5 (11726645_a_at) / RFU RCAN1 (11760418_a_at) / Fold change /veh RCAN1 (11760418_a_at) / RFU FAM167A (11723789_a_at) / Fold change /veh FAM167A (11723789_a_at) / RFU FAM26E (11764081_at) / Fold change /veh FAM26E (11764081_at) / RFU ISYNA1 (11749810_s_at) / Fold change /veh ISYNA1 (11749810_s_at) / RFU ACY1 (11761880_at) / Fold change /veh ACY1 (11761880_at) / RFU 11764098_at / Fold change /veh 11764098_at / RFU SAMD14 (11745864_x_at) / Fold change /veh SAMD14 (11745864_x_at) / RFU NPB (11741838_a_at) / Fold change /veh NPB (11741838_a_at) / RFU TMPRSS6 (11731388_a_at) / Fold change /veh TMPRSS6 (11731388_a_at) / RFU KRTAP10-2 (11738614_at) / Fold change /veh KRTAP10-2 (11738614_at) / RFU ARHGAP8 /// PRR5-ARHGAP8 (11727945_x_at) / Fold change /veh ARHGAP8 /// PRR5-ARHGAP8 (11727945_x_at) / RFU KRTAP5-7 /// NADSYN1 (11734609_at) / Fold change /veh KRTAP5-7 /// NADSYN1 (11734609_at) / RFU RASL12 (11751679_a_at) / Fold change /veh RASL12 (11751679_a_at) / RFU CDKN2B (11736163_a_at) / Fold change /veh CDKN2B (11736163_a_at) / RFU PRF1 (11729649_at) / Fold change /veh PRF1 (11729649_at) / RFU, ZNF638 /// ZNF638-IT1 / Fold change vs veh, ZNF638 /// ZNF638-IT1 / RFU, PANK3 / Fold change vs veh, PANK3 / RFU, SH3YL1 / Fold change vs veh, SH3YL1 / RFU, ZEB2 / Fold change vs veh, ZEB2 / RFU, NRIP1 / Fold change vs veh, NRIP1 / RFU, PTTG1IP / Fold change vs veh, PTTG1IP / RFU, CAPN2 / Fold change vs veh, CAPN2 / RFU, MED14 / Fold change vs veh, MED14 / RFU, SNORA58 / Fold change vs veh, SNORA58 / RFU, C1orf63 / Fold change vs veh, C1orf63 / RFU, LRRFIP1 / Fold change vs veh, LRRFIP1 / RFU, NDUFAF7 / Fold change vs veh, NDUFAF7 / RFU, SLC12A2 / Fold change vs veh, SLC12A2 / RFU, IBTK / Fold change vs veh, IBTK / RFU, ESF1 / Fold change vs veh, ESF1 / Fold change vs veh, TMEM50B / RFU, TAOK1 / Fold change vs veh, TAOK1 / RFU, ACBD3 / Fold change vs veh, ACBD3 / RFU, TMA16 / Fold change vs veh, TMA16 / RFU, RWDD3 / Fold change vs veh, RWDD3 / RFU, BCAT1 / Fold change vs veh, BCAT1 / RFU, EDEM3 / Fold change vs veh, EDEM3 / RFU, TMEM33 / Fold change vs veh, TMEM33 / RFU, WDR75 / Fold change vs veh, WDR75 / RFU, AHCTF1 / Fold change vs veh, AHCTF1 / RFU, TFRC / Fold change vs veh, TFRC / RFU, ZDHHC17 / Fold change vs veh, ZDHHC17 / RFU, NOM1 / Fold change vs veh, NOM1 / RFU, ARL8B / Fold change vs veh, ARL8B / RFU, ZBTB11 / Fold change vs veh, ZBTB11 / RFU, TAMM41 / Fold change vs veh, TAMM41 / RFU, KIAA1704 /// LOC100996395 / Fold change vs veh, KIAA1704 /// LOC100996395 / RFU, ING1 / Fold change vs veh, ING1 / RFU, TRMT61B / Fold change vs veh, TRMT61B / RFU, FUBP3 / Fold change vs veh, FUBP3 / RFU, TP53 / Fold change vs veh, TP53 / RFU, TNKS2 / Fold change vs veh, TNKS2 / RFU, ZFP14 / Fold change vs veh, ZFP14 / RFU, ACTR2 / Fold change vs veh, ACTR2 / RFU, PPP3R1 / Fold change vs veh, PPP3R1 / RFU, PIK3R1 / Fold change vs veh, PIK3R1 / RFU, HNRNPA1 / Fold change vs veh, HNRNPA1 / RFU, RNF170 / Fold change vs veh, RNF170 / RFU, ZNF28 / Fold change vs veh, ZNF28 / RFU, RNGTT / Fold change vs veh, RNGTT / RFU, OGT / Fold change vs veh, OGT / RFU, BRD1 / Fold change vs veh, BRD1 / RFU, MARS / Fold change vs veh, MARS / RFU, ZNF655 / Fold change vs veh, ZNF655 / RFU, FAHD1 / Fold change vs veh, FAHD1 / RFU, BDP1 / Fold change vs veh, BDP1 / RFU, LRRCC1 / Fold change vs veh, LRRCC1 / RFU, ARID1A / Fold change vs veh, ARID1A / RFU, ZNF146 / Fold change vs veh, ZNF146 / RFU, ZNF330 / Fold change vs veh, ZNF330 / RFU, GPN3 / Fold change vs veh, GPN3 / RFU, C9orf123 / Fold change vs veh, C9orf123 / RFU, N4BP2L2 / Fold change vs veh, N4BP2L2 / RFU, ARFIP1 / Fold change vs veh, ARFIP1 / RFU, FAM179B / Fold change vs veh, FAM179B / RFU, BCL10 / Fold change vs veh, BCL10 / RFU, UHRF1BP1L / Fold change vs veh, UHRF1BP1L / RFU, BET1 / Fold change vs veh, BET1 / RFU, CNOT2 / Fold change vs veh, CNOT2 / RFU, ZNF268 / Fold change vs veh, ZNF268 / Fold change vs veh, ZNF507 / RFU, DGCR2 / Fold change vs veh, DGCR2 / RFU, WDSUB1 / Fold change vs veh, WDSUB1 / Fold change vs veh, HSP90B1 /// MIR3652 / RFU, ADSS / Fold change vs veh, ADSS / RFU, GK / Fold change vs veh, GK / RFU, ZNF148 / Fold change vs veh, ZNF148 / RFU, TAF9 / Fold change vs veh, TAF9 / RFU, SLC1A5 / Fold change vs veh, SLC1A5 / RFU, SLMO2 / Fold change vs veh, SLMO2 / RFU, ABCC4 / Fold change vs veh, ABCC4 / RFU, LOC101060439 /// RAP1B / Fold change vs veh, LOC101060439 /// RAP1B / RFU, RFX7 / Fold change vs veh, RFX7 / RFU, GTPBP10 / Fold change vs veh, GTPBP10 / RFU, CNEP1R1 / Fold change vs veh, CNEP1R1 / RFU, BIVM-ERCC5 /// ERCC5 / Fold change vs veh, BIVM-ERCC5 /// ERCC5 / RFU, ILF3 / Fold change vs veh, ILF3 / RFU 11762660_at / Fold change /veh 11762660_at / RFU VCAN (11757783_s_at) / Fold change /veh VCAN (11757783_s_at) / RFU DDX43 (11728927_at) / Fold change /veh DDX43 (11728927_at) / RFU KRT8 (11758188_x_at) / Fold change /veh KRT8 (11758188_x_at) / RFU NKD1 (11759106_at) / Fold change /veh NKD1 (11759106_at) / RFU SRD5A1 (11742802_a_at) / Fold change /veh SRD5A1 (11742802_a_at) / RFU TPSAB1 /// TPSB2 (11721975_s_at) / Fold change /veh TPSAB1 /// TPSB2 (11721975_s_at) / RFU GSTM3 (11746129_a_at) / Fold change /veh GSTM3 (11746129_a_at) / RFU IL23R (11737362_x_at) / Fold change /veh IL23R (11737362_x_at) / RFU TMEM51 (11727254_a_at) / Fold change /veh TMEM51 (11727254_a_at) / RFU PIWIL2 (11732686_x_at) / Fold change /veh PIWIL2 (11732686_x_at) / RFU ORM1 (11744905_x_at) / Fold change /veh ORM1 (11744905_x_at) / RFU CCDC152 (11743942_at) / Fold change /veh CCDC152 (11743942_at) / RFU ECM1 (11717891_a_at) / Fold change /veh ECM1 (11717891_a_at) / RFU IL23R (11748794_a_at) / Fold change /veh IL23R (11748794_a_at) / RFU TNFAIP8L3 (11732012_x_at) / Fold change /veh TNFAIP8L3 (11732012_x_at) / RFU MBOAT4 (11741988_at) / Fold change /veh MBOAT4 (11741988_at) / RFU 11764193_at / Fold change /veh 11764193_at / RFU TMEM53 (11763286_at) / Fold change /veh TMEM53 (11763286_at) / RFU MAGEB2 (11727129_at) / Fold change /veh MAGEB2 (11727129_at) / RFU TMEM200A (11744735_a_at) / Fold change /veh TMEM200A (11744735_a_at) / RFU CCDC152 (11751479_a_at) / Fold change /veh CCDC152 (11751479_a_at) / RFU FAM211A (11726209_a_at) / Fold change /veh FAM211A (11726209_a_at) / RFU RGS16 (11746705_a_at) / Fold change /veh RGS16 (11746705_a_at) / RFU VCAN (11755009_s_at) / Fold change /veh VCAN (11755009_s_at) / RFU RHOB (11743442_s_at) / Fold change /veh RHOB (11743442_s_at) / RFU RGS16 (11720943_a_at) / Fold change /veh RGS16 (11720943_a_at) / RFU RGS16 (11720944_at) / Fold change /veh RGS16 (11720944_at) / RFU, VPS4B / Fold change vs veh, VPS4B / RFU, CREB1 / Fold change vs veh, CREB1 / RFU, DNAJC13 / Fold change vs veh, DNAJC13 / RFU, GNAQ / Fold change vs veh, GNAQ / RFU, CDK5R1 / Fold change vs veh, CDK5R1 / RFU, ZRANB3 / Fold change vs veh, ZRANB3 / RFU, CUL4A / Fold change vs veh, CUL4A / RFU, CCNY / Fold change vs veh, CCNY / RFU, UFL1 / Fold change vs veh, UFL1 / RFU, COG3 / Fold change vs veh, COG3 / RFU, DIAPH2 / Fold change vs veh, DIAPH2 / RFU, SKA2 / Fold change vs veh, SKA2 / RFU, AFF3 / Fold change vs veh, AFF3 / RFU, LMF1 / Fold change vs veh, LMF1 / RFU, IPO11 / Fold change vs veh, IPO11 / RFU, DFFB / Fold change vs veh, DFFB / RFU, FOXP1 / Fold change vs veh, FOXP1 / RFU, CARD8 / Fold change vs veh, CARD8 / RFU, STRN3 / Fold change vs veh, STRN3 / RFU, ADK / Fold change vs veh, ADK / RFU, RASSF2 / Fold change vs veh, RASSF2 / RFU, WIPF1 / Fold change vs veh, WIPF1 / RFU, LARP1B / Fold change vs veh, LARP1B / RFU, RASA1 / Fold change vs veh, RASA1 / RFU, RB1 / Fold change vs veh, RB1 / RFU, PPFIA1 / Fold change vs veh, PPFIA1 / RFU, MAT2A / Fold change vs veh, MAT2A / RFU, CCT5 / Fold change vs veh, CCT5 / RFU, WDR92 / Fold change vs veh, WDR92 / RFU, CUX1 / Fold change vs veh, CUX1 / RFU, TTC7A / Fold change vs veh, TTC7A / RFU, TMEM135 / Fold change vs veh, TMEM135 / RFU, DEPTOR / Fold change vs veh, DEPTOR / RFU, CPM / Fold change vs veh, CPM / RFU, DNAJB6 / Fold change vs veh, DNAJB6 / RFU, CACNA2D3 / Fold change vs veh, CACNA2D3 / RFU, DTX4 / Fold change vs veh, DTX4 / RFU, TFCP2 / Fold change vs veh, TFCP2 / RFU, GMCL1 /// GMCL1P1 / Fold change vs veh, GMCL1 /// GMCL1P1 / RFU, AEBP2 / Fold change vs veh, AEBP2 / RFU, SNHG1 /// SNORD22 /// SNORD25 /// SNORD26 /// SNORD27 /// SNORD28 /// SNORD29 /// SNORD31 / Fold change vs veh, SNHG1 /// SNORD22 /// SNORD25 /// SNORD26 /// SNORD27 /// SNORD28 /// SNORD29 /// SNORD31 / Fold change (Aza/veh), C12orf56 (ProbeSet 11735607_a_at) / Fold change (ACY-1035/veh), C12orf56 (ProbeSet 11735607_a_at) / Fold change (Aza/veh), FGFR1OP (ProbeSet 11751329_s_at) / Fold change (ACY-1035/veh), FGFR1OP (ProbeSet 11751329_s_at) / Fold change (Aza/veh), VPS36 (ProbeSet 11739960_a_at) / Fold change (ACY-1035/veh), VPS36 (ProbeSet 11739960_a_at) / RFU SYPL1 (11715823_x_at) / Fold change /veh SYPL1 (11715823_x_at) / RFU IGFBP7 (11715501_s_at) / Fold change /veh IGFBP7 (11715501_s_at) / RFU REEP3 (11722064_at) / Fold change /veh REEP3 (11722064_at) / RFU IGLL1 (11728026_x_at) / Fold change /veh IGLL1 (11728026_x_at): dose or concentration left out as unconfirmed.

Take `Nc1ccc(-c2cccs2)cc1NC(=O)c1ccc2c(c1)cc(C1CC1)n2CCN1CCOCC1` [ACY-1035]: the “Fold change /veh OR4N2 (11742367_at)” value was 1.06.
